Source: paper PMC4844702, “Selective inhibition of the kinase DYRK1A by targeting its folding process” (Nature Communications, 2016)

Tests used:
Assay in all cases: Kinase panel (Carna)
Assay type in all cases: biochemical
ABL = biological target: T1, ABL (Homo sapiens, UniProt P00519)
T1 construct: purchased Carna Biosciences
Description: (§1) Detailed information on the assay conditions is available on the website of Carna Biosciences (http://www.carnabio.com).

BLK = biological target: T2, BLK (Homo sapiens, UniProt P51451)
T2 construct: purchased Carna Biosciences
Description: as §1

EPHA8 = biological target: T3, EPHA8 (Homo sapiens, UniProt P29322)
T3 construct: purchased Carna Biosciences
Description: as §1

EPHB4 = biological target: T4, EPHB4 (Homo sapiens, UniProt P54760)
T4 construct: purchased Carna Biosciences
Description: as §1

FAK = biological target: T5, FAK (Homo sapiens, UniProt Q05397)
T5 construct: purchased Carna Biosciences
T5 sequence (Q05397 whole entry): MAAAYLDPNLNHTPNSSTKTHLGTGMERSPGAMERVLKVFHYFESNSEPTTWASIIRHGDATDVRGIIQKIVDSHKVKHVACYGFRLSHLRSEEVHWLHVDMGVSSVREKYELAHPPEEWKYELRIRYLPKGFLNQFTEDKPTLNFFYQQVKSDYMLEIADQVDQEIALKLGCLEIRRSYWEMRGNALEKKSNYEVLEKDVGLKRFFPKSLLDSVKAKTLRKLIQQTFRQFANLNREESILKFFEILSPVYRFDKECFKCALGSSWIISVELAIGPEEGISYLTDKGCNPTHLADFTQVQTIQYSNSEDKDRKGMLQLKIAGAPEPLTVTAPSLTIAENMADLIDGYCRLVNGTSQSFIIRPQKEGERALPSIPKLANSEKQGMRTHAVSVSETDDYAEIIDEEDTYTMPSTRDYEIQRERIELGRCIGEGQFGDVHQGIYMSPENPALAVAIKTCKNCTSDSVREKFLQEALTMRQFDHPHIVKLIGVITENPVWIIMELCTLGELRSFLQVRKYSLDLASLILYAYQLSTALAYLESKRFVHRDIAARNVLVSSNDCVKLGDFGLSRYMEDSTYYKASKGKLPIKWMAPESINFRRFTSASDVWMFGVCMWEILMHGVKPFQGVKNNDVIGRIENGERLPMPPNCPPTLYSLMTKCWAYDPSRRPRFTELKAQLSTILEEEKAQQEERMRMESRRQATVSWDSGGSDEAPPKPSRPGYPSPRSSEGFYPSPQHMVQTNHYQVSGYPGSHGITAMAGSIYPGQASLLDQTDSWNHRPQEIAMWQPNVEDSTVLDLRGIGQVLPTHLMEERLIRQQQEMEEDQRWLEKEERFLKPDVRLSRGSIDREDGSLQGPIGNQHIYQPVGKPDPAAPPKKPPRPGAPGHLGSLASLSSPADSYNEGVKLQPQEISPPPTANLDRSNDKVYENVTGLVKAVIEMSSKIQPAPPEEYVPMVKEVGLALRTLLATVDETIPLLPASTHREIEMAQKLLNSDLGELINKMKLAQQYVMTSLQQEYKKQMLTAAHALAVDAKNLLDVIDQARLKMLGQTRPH
Description: as §1

FGR = biological target: T6, FGR (Homo sapiens, UniProt P09769)
T6 construct: purchased Carna Biosciences

FLT4 = biological target: T7, FLT4 (Homo sapiens, UniProt P35916)
T7 construct: purchased Carna Biosciences
Description: as §1

FRK = biological target: T8, FRK (Homo sapiens, UniProt P42685)
T8 construct: purchased Carna Biosciences
Description: as §1

FYN = biological target: T9, FYN (Homo sapiens, UniProt P06241)
T9 construct: purchased Carna Biosciences
Description: as §1

JAK1 = biological target: T10, JAK1 (Homo sapiens, UniProt P23458)
T10 construct: purchased Carna Biosciences
Description: as §1

BRSK2 = biological target: T11, BRSK2 (Homo sapiens, UniProt Q8IWQ3)
T11 construct: purchased Carna Biosciences
Description: as §1

TRKA = biological target: T12, TRKA (Homo sapiens, UniProt P04629)
T12 construct: purchased Carna Biosciences
Description: as §1

ZAP70 = biological target: T13, ZAP70 (Homo sapiens, UniProt P43403)
T13 construct: purchased Carna Biosciences
Description: as §1

AKT1 = biological target: T14, AKT1 (Homo sapiens, UniProt P31749)
T14 construct: purchased Carna Biosciences
T14 sequence (P31749 whole entry): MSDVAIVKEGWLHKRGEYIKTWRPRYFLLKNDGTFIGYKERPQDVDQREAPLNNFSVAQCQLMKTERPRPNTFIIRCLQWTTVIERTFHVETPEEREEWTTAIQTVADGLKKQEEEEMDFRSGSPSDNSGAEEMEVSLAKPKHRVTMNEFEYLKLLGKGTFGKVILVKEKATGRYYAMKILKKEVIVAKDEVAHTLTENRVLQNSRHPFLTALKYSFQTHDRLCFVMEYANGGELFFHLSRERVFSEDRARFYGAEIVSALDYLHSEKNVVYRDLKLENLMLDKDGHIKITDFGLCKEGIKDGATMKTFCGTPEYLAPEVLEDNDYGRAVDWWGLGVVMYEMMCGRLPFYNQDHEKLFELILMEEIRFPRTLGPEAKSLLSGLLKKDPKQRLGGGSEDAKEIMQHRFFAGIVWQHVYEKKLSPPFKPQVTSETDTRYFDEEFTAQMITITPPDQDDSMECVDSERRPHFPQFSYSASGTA
Description: as §1

CaMK1δ = biological target: T15, CaMK1δ (Homo sapiens, UniProt Q8IU85)
T15 construct: purchased Carna Biosciences
Description: as §1

CaMK4 = biological target: T16, CaMK4 (Homo sapiens, UniProt Q16566)
T16 construct: purchased Carna Biosciences

CDC2/CycB1 = biological target: T17, CDC2/CycB1 (Homo sapiens, UniProt P06493)
T17 construct: purchased Carna Biosciences

CDK2/CycA2 = biological target: T18, CDK2/CycA2 (Homo sapiens, UniProt P24941)
T18 construct: purchased Carna Biosciences
Description: as §1

CHK1 = biological target: T19, CHK1 (Homo sapiens, UniProt O14757)
T19 construct: purchased Carna Biosciences
Description: as §1

CHK2 = biological target: T20, CHK2 (Homo sapiens, UniProt O96017)
T20 construct: purchased Carna Biosciences

CK1γ1 = biological target: T21, CK1γ1 (Homo sapiens, UniProt Q9HCP0)
T21 construct: purchased Carna Biosciences

CK1δ = biological target: T22, CK1δ (Homo sapiens, UniProt P48730)
T22 construct: purchased Carna Biosciences

MAP3K5_Cascade = biological target: T23, MAP3K5_Cascade (Homo sapiens, UniProt Q99683)
T23 construct: purchased Carna Biosciences
Description: as §1

Erk2 = biological target: T24, Erk2 (Homo sapiens, UniProt P28482)
T24 construct: purchased Carna Biosciences
T24 sequence (P28482 whole entry): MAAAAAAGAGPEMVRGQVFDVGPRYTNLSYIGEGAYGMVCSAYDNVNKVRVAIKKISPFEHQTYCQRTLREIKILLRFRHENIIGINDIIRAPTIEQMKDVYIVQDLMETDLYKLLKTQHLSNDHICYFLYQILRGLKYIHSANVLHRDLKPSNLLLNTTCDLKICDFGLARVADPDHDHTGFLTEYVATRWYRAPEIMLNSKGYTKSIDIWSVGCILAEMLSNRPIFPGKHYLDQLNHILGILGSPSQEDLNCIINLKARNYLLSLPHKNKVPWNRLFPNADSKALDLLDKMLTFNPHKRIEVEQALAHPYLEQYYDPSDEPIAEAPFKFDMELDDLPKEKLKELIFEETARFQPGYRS

HIPK3 = biological target: T25, HIPK3 (Homo sapiens, UniProt Q9H422)
T25 construct: purchased Carna Biosciences
Description: as §1

MAP2K3_Cascade = biological target: T26, MAP2K3_Cascade (Homo sapiens, UniProt P46734)
T26 construct: purchased Carna Biosciences

MAP2K6_Cascade = biological target: T27, MAP2K6_Cascade (Homo sapiens, UniProt P52564)
T27 construct: purchased Carna Biosciences

MAP3K1_Cascade = biological target: T28, MAP3K1_Cascade (Homo sapiens, UniProt Q13233)
T28 construct: purchased Carna Biosciences
Description: as §1

MAP3K2_Cascade = biological target: T29, MAP3K2_Cascade (Homo sapiens, UniProt Q9Y2U5)
T29 construct: purchased Carna Biosciences
Description: as §1

MARK1 = biological target: T30, MARK1 (Homo sapiens, UniProt Q9P0L2)
T30 construct: purchased Carna Biosciences
T30 sequence (Q9P0L2 whole entry): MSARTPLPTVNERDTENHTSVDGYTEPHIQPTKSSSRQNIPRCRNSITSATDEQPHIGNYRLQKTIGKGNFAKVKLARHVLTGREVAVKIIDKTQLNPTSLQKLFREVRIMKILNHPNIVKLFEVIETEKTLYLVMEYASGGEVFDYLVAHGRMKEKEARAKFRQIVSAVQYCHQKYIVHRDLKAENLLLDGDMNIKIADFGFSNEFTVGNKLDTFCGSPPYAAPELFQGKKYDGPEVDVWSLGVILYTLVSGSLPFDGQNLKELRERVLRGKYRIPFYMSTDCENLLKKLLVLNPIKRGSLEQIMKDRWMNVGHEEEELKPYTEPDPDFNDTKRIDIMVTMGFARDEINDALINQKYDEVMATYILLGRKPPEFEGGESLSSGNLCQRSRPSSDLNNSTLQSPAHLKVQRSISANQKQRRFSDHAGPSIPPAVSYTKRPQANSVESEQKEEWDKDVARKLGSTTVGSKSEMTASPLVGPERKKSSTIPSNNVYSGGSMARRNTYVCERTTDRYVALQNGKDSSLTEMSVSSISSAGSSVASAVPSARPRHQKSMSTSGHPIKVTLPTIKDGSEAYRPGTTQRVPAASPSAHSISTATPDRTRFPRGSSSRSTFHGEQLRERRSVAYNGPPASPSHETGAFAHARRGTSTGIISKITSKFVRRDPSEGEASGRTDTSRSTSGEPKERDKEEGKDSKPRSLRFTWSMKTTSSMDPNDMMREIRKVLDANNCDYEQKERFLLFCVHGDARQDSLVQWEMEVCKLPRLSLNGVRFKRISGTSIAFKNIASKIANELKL
Description: as §1

MINK = biological target: T31, MINK (Homo sapiens, UniProt Q8N4C8)
T31 construct: purchased Carna Biosciences
Description: as §1

MNK1 = biological target: T32, MNK1 (Homo sapiens, UniProt Q9BUB5)
T32 construct: purchased Carna Biosciences

MRCKα = biological target: T33, MRCKα (Homo sapiens, UniProt Q5VT25)
T33 construct: purchased Carna Biosciences
T33 sequence (Q5VT25 whole entry): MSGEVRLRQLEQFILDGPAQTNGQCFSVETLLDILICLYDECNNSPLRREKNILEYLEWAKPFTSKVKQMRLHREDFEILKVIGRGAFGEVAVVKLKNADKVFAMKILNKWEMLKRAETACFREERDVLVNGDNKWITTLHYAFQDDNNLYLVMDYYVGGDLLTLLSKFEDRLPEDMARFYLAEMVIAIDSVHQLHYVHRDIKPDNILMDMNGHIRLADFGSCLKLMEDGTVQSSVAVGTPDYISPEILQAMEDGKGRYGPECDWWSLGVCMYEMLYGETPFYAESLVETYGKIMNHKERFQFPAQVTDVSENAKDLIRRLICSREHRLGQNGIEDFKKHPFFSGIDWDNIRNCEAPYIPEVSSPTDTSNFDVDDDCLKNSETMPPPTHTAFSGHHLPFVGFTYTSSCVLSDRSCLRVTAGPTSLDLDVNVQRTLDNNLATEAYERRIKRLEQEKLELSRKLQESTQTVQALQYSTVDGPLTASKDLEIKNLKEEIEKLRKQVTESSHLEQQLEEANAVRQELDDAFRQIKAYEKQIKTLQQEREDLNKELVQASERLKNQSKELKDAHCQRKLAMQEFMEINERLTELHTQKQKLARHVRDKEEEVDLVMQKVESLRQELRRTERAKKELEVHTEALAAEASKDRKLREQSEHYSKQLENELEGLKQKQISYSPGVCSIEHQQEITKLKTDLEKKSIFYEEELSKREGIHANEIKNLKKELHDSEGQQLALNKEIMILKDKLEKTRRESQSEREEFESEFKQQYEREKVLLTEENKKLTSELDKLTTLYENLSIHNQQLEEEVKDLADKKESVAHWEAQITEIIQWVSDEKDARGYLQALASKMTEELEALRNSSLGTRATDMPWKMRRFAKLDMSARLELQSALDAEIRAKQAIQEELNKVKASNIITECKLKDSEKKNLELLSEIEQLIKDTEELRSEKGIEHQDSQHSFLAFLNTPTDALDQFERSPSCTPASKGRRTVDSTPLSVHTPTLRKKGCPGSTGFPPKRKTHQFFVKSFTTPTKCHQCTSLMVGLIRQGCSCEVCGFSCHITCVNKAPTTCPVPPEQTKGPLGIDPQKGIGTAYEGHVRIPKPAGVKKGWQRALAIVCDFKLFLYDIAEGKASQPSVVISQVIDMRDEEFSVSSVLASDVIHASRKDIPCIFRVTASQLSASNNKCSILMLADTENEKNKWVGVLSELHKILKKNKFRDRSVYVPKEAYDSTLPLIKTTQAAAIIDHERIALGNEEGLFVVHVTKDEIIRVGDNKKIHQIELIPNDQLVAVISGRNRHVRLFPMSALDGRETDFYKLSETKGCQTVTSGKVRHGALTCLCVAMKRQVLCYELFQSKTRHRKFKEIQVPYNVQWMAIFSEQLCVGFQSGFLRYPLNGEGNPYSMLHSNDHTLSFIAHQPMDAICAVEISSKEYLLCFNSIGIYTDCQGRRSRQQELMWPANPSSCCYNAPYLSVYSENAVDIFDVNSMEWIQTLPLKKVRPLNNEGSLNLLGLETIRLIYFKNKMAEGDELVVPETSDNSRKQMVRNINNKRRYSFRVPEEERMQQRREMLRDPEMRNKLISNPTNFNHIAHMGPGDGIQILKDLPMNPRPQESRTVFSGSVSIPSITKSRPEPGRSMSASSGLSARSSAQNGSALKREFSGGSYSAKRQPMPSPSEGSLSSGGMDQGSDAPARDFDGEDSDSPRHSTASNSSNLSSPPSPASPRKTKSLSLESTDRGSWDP

MST1 = biological target: T34, MST1 (Homo sapiens, UniProt Q13043)
T34 construct: purchased Carna Biosciences
T34 sequence (Q13043 whole entry): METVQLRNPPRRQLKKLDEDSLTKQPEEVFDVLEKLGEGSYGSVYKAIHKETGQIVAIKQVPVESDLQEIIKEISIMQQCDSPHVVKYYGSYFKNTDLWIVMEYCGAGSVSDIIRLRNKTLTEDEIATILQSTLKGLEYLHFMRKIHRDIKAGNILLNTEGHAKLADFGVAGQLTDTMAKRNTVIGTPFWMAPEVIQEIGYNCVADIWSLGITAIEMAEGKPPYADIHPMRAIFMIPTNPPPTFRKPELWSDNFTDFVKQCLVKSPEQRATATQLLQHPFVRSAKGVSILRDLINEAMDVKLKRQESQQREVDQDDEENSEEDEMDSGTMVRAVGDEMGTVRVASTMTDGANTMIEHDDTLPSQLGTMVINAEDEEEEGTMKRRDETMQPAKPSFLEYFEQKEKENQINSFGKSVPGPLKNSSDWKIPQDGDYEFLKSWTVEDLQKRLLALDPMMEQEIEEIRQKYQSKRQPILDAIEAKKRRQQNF
Description: as §1

MST2 = biological target: T35, MST2 (Homo sapiens, UniProt Q13188)
T35 construct: purchased Carna Biosciences
Description: as §1

p38γ = biological target: T36, p38γ (Homo sapiens, UniProt P53778)
T36 construct: purchased Carna Biosciences
Description: as §1

p70S6Kβ = biological target: T37, p70S6Kβ (Homo sapiens, UniProt Q9UBS0)
T37 construct: purchased Carna Biosciences
Description: as §1

PAK3 = biological target: T38, PAK3 (Homo sapiens, UniProt O75914)
T38 construct: purchased Carna Biosciences
Description: as §1

PHKG1 = biological target: T39, PHKG1 (Homo sapiens, UniProt Q16816)
T39 construct: purchased Carna Biosciences
Description: as §1

PKCα = biological target: T40, PKCα (Homo sapiens, UniProt P17252)
T40 construct: purchased Carna Biosciences

PKCβ1 = biological target: T41, PKCβ1 (Homo sapiens, UniProt P05771)
T41 construct: purchased Carna Biosciences
Description: as §1

PLK2 = biological target: T42, PLK2 (Homo sapiens, UniProt Q9NYY3)
T42 construct: purchased Carna Biosciences

PRKX = biological target: T43, PRKX (Homo sapiens, UniProt P51817)
T43 construct: purchased Carna Biosciences

TAOK2 = biological target: T44, TAOK2 (Homo sapiens, UniProt Q9UL54)
T44 construct: purchased Carna Biosciences
Description: as §1

COc1ccc(/C=C2\SC(=S)NC2=O)cc1C#C[Si](C)(C)C [FINDY] showed an inhibition at 10 µM (ABL) of 13%, an inhibition at 10 µM (BLK) of 25.5% and an inhibition at 10 µM (EPHA8) of 48.8%. It also gave an inhibition at 10 µM (EPHB4) of 20.5%, an inhibition at 10 µM (FAK) of 7.3% and an inhibition at 10 µM (FGR) of 5.3%. For the same molecule, the inhibition at 10 µM (FLT4) was 9.8%, the inhibition at 10 µM (FRK) was 8.4% and the inhibition at 10 µM (FYN) was 58.4%. It also gave an inhibition at 10 µM (JAK1) of 5.7%, an inhibition at 10 µM (BRSK2) of 5.7% and an inhibition at 10 µM (TRKA) of -0.6%. It also gave an inhibition at 10 µM (ZAP70) of 12.9%, an inhibition at 10 µM (AKT1) of 36.6% and an inhibition at 10 µM (CaMK1δ) of 7.2%. For the same molecule, the inhibition at 10 µM (CaMK4) was 2.4%, the inhibition at 10 µM (CDC2/CycB1) was 43.4% and the inhibition at 10 µM (CDK2/CycA2) was 31.3%. The inhibition at 10 µM (CHK1) was -119%, the inhibition at 10 µM (CHK2) was 6.3% and the inhibition at 10 µM (CK1γ1) was 19.9%. It also gave an inhibition at 10 µM (CK1δ) of 29.1%, an inhibition at 10 µM (MAP3K5_Cascade) of 32.1% and an inhibition at 10 µM (Erk2) of 36.4%. For the same molecule, the inhibition at 10 µM (HIPK3) was 7.1%, the inhibition at 10 µM (MAP2K3_Cascade) was 26% and the inhibition at 10 µM (MAP2K6_Cascade) was 23.5%. It also gave an inhibition at 10 µM (MAP3K1_Cascade) of 44.4%, an inhibition at 10 µM (MAP3K2_Cascade) of 55.8% and an inhibition at 10 µM (MARK1) of 46.7%. It also gave an inhibition at 10 µM (MINK) of 5%, an inhibition at 10 µM (MNK1) of 6.2% and an inhibition at 10 µM (MRCKα) of 2.7%. The inhibition at 10 µM (MST1) was -5.2%, the inhibition at 10 µM (MST2) was -5.7% and the inhibition at 10 µM (p38γ) was 5%. For the same molecule, the inhibition at 10 µM (p70S6Kβ) was 19.9%, the inhibition at 10 µM (PAK3) was -14.7% and the inhibition at 10 µM (PHKG1) was 8.9%. The inhibition at 10 µM (PKCα) was 0.6%, the inhibition at 10 µM (PKCβ1) was 3.5% and the inhibition at 10 µM (PLK2) was 11.1%. For the same molecule, the inhibition at 10 µM (PRKX) was 3% and the inhibition at 10 µM (TAOK2) was -1.2%.
